Legend:
[1] = test system: HepG2 cells; design: method as in PMID 26398524; settings: cited from earlier work
[2] = target: T1, BSA (Bos taurus, UniProt P02769); assay: Synchronous fluorescence spectra of BSA (Δλ = 60 nm); type: binding, bovine; settings: CBSA = 10.0 μM, 288 K
Procedure: The bathochromic (or […]) shift noticed during fluorescence titration of BSA with the reagents, implied potent changes in the environment of Trp residues. To confirm these environmental changes, synchronous fluorescence spectra were recorded, because this technique yields information pertaining to the change in the polarity of the microregion near fluorophore molecules. By using different D-value (Δλ) between the excitation and emission wavelength, fluorescence contributors from different aromatic amino acids in the protein can be identified. When Δλ is stabilized at 60 nm, synchronous fluorescence spectroscopy provides the characteristic information specific to Trp residues. […] Although DPPCAH and DPPCAH-Cu could bind BSA, they induced different effects in BSA.
(§1) For the fluorescence spectra, the excitation wavelength was set at 280 nm and the emission spectra were recorded in the range of 300 to 450 nm. Both excitation and emission slit widths were adjusted to 5 nm. […] Fluorescence emission spectra were then measured on a RF-5301 Spectrofluorophotometer (Shimadzu Scientific Instruments, Kyoto, Japan) at three different temperatures (288, 303, and 310 K). In order to calculate the peak area, the integration of spectra was done in the range of 300 to 450 nm. Synchronous fluorescence spectra were recorded by simultaneously scanning the excitation and emission monochromators, in which a constant wavelength interval was maintained between them. The wavelength interval (Δλ = λem − λex) was fixed individually at 60 nm, at which characteristic information of pertaining to Trp residues was obtained.

[3] = target: T1, BSA; assay: Fluorescence quenching of BSA (Stern-Volmer, binding constants, van't Hoff thermodynamics); design: species or system bovine; settings: for number of binding sites n per BSA / Ksv (Stern-Volmer dynamic quenching constant) / ΔH of binding to BSA / ΔS of binding to BSA / ΔG of binding to BSA: pH 7.2; for Kq (quenching rate constant of biomolecule): calculated from Ksv with τ0 = 10^−8 s; for shift of BSA fluorescence emission upon addition of the agent: fluorescence titration, CBSA = 1.0 × 10^−5 M, pH 7.2, 288 K; for ΔH of binding to BSA / ΔS of binding to BSA: van't Hoff plot; for ΔG of binding to BSA: ΔG = ΔH − TΔS
Procedure: To investigate the possible mechanism responsible for fluorescence quenching, Stern–Volmer plots were used to interpret the spectral data. The procedure of fluorescence quenching was first assumed a dynamic quenching process. The dynamic quenching constant Ksv and the apparent biomolecular quenching rate constant Kq were calculated using the Stern–Volmer equation: (1) F0/F=1+Ksv[Q]=1+Kqτ0[Q] where, F0 and F are the steady-state fluorescence intensities in the absence and presence of a quencher, respectively; [Q] is the concentration of the quencher; Ksv is the Stern–Volmer dynamic quenching rate constant; τ0 is the fluorescence lifetime of the protein without the quencher, the average life of a fluorescence molecule is 10^−8 s; and Kq is the quenching rate constant of biomolecule. […] To distinguish the quenching model, additional experiments were conducted at different temperatures, as dynamic and static quenching have different temperature dependencies. With an increase in temperature, the Ksv values decrease for static quenching, and increase for dynamic quenching. […] Kq values calculated for DPPCAH and DPPCAH-Cu ranged from 5 × 10^12~7 × 10^12, and >2 × 10^10 L·mol^−1·s^−1, respectively, which further supported the static quenching model.
For the static quenching model, important binding parameters including association constant (Ka) and number of binding sites (n) were calculated from the plots using the equation: (2) log(F0−F/F0)=log Ka+nlog[Q] where, Ka is the binding constant, and n is the number of binding sites per BSA. Ka and n were obtained from the intercept and slope of the curve. […] The number of binding sites n was 1.0418 for DPPCAH and 1.1053 for DPPCAH-Cu, or approximately 1. Thus, the association of one molecule of quencher with one molecule of protein was confirmed. […] Similar results were reported from studies analyzing interaction of eupatorin with BSA [17].
The interaction of small molecules with biomacromolecule involves hydrogen bonds, electrostatic interactions, van der Waals, and hydrophobic forces. In the present study, the nature of the interaction involved in binding was determined based on thermodynamic parameters, namely, ΔH > 0 and ΔS > 0 would imply a hydrophobic interaction, ΔH < 0 and ΔS < 0 hint imply hydrogen bonding and van der Waals interactions, and ΔH< 0 and ΔS > 0 imply electrostatic force interactions. The thermodynamic parameters were obtained using the van’t Hoff Equation (3): (3) lnK=−ΔH/RT+ΔS/R where, K is the binding constant; T is the absolute temperature; and R is the universal gas constant. ΔH and ΔS were obtained from the slope and intercept of the linear van’t Hoff plot (shown in Figure 5). The free energy change (ΔG) was estimated using the following formula: ΔG = ΔH − TΔS
as §1

[4] = 303 K (first value of the printed decrease with increasing temperature)
[5] = 310 K (second value of the printed decrease with increasing temperature)

T1 sequence (P02769 25-607): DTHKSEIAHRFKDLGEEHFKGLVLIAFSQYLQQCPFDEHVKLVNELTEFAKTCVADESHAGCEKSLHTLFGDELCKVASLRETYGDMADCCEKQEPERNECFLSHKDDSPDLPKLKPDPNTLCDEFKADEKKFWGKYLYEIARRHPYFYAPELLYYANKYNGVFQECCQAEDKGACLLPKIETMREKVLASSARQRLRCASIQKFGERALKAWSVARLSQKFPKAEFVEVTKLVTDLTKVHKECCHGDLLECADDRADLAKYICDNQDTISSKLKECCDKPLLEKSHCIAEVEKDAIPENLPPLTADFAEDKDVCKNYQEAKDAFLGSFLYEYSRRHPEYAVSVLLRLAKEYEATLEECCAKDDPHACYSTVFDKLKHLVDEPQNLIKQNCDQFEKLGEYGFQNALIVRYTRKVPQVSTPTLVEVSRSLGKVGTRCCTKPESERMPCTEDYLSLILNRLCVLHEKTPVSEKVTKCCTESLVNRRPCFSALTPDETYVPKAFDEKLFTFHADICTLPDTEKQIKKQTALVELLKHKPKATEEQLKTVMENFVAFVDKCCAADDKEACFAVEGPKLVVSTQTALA

Molecule: Copper complex of di-2-pyridylketone 2-pyridinecarboxylic acid hydrazone [DPPCAH-Cu]
- antitumor activity compared with DPPCAH [1]: significantly enhanced the antitumor activity
- decrease of fluorescence intensity of Trp residue [2]: 50%
- shift of maximum emission wavelength of Trp in synchronous fluorescence [2]: blue shift
- number of binding sites n per BSA ([3]; 288 K, CBSA = 10 μM): 1.1053
- Ka (association constant with BSA) ([3]; 288 K, CBSA = 10 μM, pH 7.2 (10 mM Tris-HCl)): 6.56 ×10^4
- Ksv (Stern-Volmer dynamic quenching constant) [3, 4]: 5.47 × 10^4
- Ksv (Stern-Volmer dynamic quenching constant) [3, 5]: 4.9 × 10^4
- binding energy obtained from fluorescence quenching ([3]; at 288 K, quoted for comparison with docking): -7.1 kcal/mol
- Kq (quenching rate constant of biomolecule) [3]: > 2e+10 L/mol/s
- shift of BSA fluorescence emission upon addition of the agent [3]: blue shift
- ΔH of binding to BSA ([3]; 288 K): -9.218 kcal/mol
- ΔS of binding to BSA ([3]; 288 K): −41.5 J/mol·K
- ΔG of binding to BSA ([3]; 288 K): -6.36 kcal/mol

Molecule: O=C(NN=C(c1ccccn1)c1ccccn1)c1ccccn1 [DPPCAH, di-2-pyridylketone-2-pyridine carboxylic acid hydrazone]
- IC50 ([1]; read-out: IC50, growth inhibition of HepG2 cells): 4.6 ± 0.2 µM
- decrease of fluorescence intensity of Trp residue [2]: 55%
- shift of maximum emission wavelength of Trp in synchronous fluorescence [2]: significant red shift
- number of binding sites n per BSA ([3]; 288 K, CBSA = 10 μM): 1.0418
- Ksv (Stern-Volmer dynamic quenching constant) [3, 4]: 7.0 × 10^4
- Ksv (Stern-Volmer dynamic quenching constant) [3, 5]: 5.08 × 10^4
- Kq (quenching rate constant of biomolecule) [3]: 5 × 10^12~7 × 10^12 L·mol^−1·s^−1
- shift of BSA fluorescence emission upon addition of the agent [3]: bathochromic red shift
- ΔH of binding to BSA ([3]; 288 K): -11.23 kcal/mol
- ΔS of binding to BSA ([3]; 288 K): −60.0 J/mol·K
- ΔG of binding to BSA ([3]; 288 K): -7.096 kcal/mol
